Test results from PMC7870829, “Structural basis for the biosynthesis of lovastatin” (Nature Communications, 2021).
Values belong to the compound of their own block, whether it stands above or below them.

How the values were obtained:
LovC = target: T1, LovC (Aspergillus terreus, UniProt Q9Y7D0); test: NADPH fluorescence (Ex […] nm, Em […] nm); format: biochemical; conditions: 100 μM NADPH, 200 μM crotonoyl-CoA, 100 mM KH2PO4 pH 7.0, 2% DMSO, 25 °C
T1 construct: full-length, His-tagged (pET28_LovCcH), expressed in E. coli, without LovB
T1 sequence (Q9Y7D0 1-363): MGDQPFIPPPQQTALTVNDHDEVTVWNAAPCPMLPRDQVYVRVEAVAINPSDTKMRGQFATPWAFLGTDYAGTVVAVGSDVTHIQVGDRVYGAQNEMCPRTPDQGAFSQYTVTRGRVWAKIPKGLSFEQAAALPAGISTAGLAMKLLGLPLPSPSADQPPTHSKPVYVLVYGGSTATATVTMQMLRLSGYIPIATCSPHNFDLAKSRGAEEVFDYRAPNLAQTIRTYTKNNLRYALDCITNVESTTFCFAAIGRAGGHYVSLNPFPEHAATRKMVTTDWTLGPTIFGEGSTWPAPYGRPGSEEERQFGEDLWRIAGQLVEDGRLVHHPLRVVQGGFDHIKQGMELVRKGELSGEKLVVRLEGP

LovB = target: T2, LovB (Aspergillus terreus, UniProt Q9Y8A5); test: cryo-EM structure; format: binding; conditions: KR domain NADPH pocket; sample with 2 mM each Mal-CoA, NADPH and SAM; pH 8.0
T2 construct: dimer; ACP and CON domains not resolved; DSS-crosslinked with LovC for cryo-EM

[1] = target: lovastatin nonaketide synthase (LovB), full-length, His-tagged (Aspergillus terreus) (UniProt Q9Y8A5); test: cryo-EM structure; LovB mixed with LovC and 2 mM each of Mal-CoA, NADPH and SAM, cross-linked with DSS, SEC on Superose 6 Increase (50 mM Tricine pH 8.0, 4 mM SAM), cofactors re-added, 0.1% Tween 20; maps at 2.91 Å (LovB) and 3.60 Å (LovBC with one LovC)

T2 sequence (Q9Y8A5 whole entry, the tested form may be a part): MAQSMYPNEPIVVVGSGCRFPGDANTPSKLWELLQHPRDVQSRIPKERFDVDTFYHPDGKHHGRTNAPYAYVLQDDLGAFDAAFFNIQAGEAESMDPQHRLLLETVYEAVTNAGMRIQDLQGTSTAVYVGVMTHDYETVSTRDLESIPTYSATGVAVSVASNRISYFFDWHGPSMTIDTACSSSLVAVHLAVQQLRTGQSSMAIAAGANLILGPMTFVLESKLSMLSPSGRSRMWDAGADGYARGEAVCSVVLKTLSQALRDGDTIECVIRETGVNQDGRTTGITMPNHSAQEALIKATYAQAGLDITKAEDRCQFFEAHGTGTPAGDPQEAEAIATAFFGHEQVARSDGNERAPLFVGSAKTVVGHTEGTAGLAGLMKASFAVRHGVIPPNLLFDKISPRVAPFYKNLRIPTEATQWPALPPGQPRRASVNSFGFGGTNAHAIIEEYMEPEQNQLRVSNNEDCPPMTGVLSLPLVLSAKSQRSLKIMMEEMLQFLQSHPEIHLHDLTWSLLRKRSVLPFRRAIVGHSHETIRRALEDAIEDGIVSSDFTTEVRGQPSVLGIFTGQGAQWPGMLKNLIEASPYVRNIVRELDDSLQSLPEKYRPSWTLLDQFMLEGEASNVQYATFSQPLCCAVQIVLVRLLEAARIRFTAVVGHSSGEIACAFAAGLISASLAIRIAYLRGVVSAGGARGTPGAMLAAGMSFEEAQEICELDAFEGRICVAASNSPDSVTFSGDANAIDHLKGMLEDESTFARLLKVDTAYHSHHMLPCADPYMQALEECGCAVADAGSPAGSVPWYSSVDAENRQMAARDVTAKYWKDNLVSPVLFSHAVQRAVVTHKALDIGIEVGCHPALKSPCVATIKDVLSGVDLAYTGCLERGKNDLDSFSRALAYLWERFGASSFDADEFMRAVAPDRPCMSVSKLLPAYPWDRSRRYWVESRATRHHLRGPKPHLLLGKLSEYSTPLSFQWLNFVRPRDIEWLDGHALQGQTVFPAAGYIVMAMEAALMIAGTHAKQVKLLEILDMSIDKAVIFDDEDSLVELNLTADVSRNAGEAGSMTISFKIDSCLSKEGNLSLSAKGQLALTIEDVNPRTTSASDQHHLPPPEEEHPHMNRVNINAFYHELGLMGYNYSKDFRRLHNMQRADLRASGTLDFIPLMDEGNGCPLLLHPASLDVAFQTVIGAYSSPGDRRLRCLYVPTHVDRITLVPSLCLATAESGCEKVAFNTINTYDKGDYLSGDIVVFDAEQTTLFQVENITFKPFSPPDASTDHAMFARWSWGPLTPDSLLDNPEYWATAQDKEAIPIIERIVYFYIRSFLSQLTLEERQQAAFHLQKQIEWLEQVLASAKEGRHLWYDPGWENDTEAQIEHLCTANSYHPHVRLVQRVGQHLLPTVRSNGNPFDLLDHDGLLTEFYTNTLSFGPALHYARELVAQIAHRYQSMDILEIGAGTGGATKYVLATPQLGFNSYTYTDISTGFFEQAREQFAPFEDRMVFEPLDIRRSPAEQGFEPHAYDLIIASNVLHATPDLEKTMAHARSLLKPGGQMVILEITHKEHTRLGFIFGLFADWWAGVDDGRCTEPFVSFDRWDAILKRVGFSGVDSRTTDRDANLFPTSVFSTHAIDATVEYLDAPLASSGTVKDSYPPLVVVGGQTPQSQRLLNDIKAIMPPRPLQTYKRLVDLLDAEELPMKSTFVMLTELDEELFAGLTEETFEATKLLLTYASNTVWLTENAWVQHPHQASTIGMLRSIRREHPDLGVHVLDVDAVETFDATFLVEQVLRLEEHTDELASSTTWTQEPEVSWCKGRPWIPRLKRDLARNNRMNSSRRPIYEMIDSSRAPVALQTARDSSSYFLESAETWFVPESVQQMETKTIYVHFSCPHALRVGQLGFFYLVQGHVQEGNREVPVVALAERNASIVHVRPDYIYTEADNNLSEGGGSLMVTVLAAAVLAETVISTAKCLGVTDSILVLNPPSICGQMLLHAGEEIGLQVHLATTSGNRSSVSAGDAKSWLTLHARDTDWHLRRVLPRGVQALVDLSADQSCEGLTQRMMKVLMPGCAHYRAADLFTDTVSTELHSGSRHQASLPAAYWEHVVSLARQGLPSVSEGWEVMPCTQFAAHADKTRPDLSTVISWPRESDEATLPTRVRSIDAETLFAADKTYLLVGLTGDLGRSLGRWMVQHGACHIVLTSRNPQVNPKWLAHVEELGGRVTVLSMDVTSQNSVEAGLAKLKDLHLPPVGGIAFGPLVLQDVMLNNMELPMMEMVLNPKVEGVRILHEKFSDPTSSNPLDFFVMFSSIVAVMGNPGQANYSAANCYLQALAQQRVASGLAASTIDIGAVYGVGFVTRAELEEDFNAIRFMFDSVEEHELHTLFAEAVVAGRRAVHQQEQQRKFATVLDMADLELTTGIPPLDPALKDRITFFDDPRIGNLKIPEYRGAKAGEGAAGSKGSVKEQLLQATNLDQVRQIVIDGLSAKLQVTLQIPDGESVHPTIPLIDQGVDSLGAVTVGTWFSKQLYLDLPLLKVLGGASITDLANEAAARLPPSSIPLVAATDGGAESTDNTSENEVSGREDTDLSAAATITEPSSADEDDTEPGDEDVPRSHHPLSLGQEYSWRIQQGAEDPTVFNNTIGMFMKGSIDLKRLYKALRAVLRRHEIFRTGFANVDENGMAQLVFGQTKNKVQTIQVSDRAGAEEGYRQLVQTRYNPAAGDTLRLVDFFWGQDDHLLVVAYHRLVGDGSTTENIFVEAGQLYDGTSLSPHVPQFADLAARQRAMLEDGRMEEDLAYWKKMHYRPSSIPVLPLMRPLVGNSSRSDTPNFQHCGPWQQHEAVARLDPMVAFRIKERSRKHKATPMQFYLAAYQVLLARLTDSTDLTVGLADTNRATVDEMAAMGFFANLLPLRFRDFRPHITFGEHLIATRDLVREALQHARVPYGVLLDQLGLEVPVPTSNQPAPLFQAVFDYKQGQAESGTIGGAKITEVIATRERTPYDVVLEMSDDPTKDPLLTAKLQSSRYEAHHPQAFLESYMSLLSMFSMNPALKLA

Compound: NC(=O)C1=CN([C@@H]2O[C@H](COP(=O)(O)OP(=O)(O)OC[C@H]3O[C@@H](n4cnc5c(N)ncnc54)[C@H](OP(=O)(O)O)[C@@H]3O)[C@@H](O)[C@H]2O)C=CC1 [NADPH]
NADPH fluorescence (Ex 340 nm, Em 455 nm) (LovC): NADPH was oxidized in the presence of substrate over time

Compound: NC(=O)c1ccc[n+]([C@@H]2O[C@H](COP(=O)(O)OP(=O)(O)OC[C@H]3O[C@@H](n4cnc5c(N)ncnc54)[C@H](OP(=O)(O)O)[C@@H]3O)[C@@H](O)[C@H]2O)c1 [NADP+]
cryo-EM structure (LovB): The NADPH binding pocket with bound NADP^+ nicotinamide ring can be clearly identified

stoichiometry N [1]: 2
Compound: lovastatin nonaketide synthase (LovB), full-length, His-tagged, Q9Y8A5 1-3038
